In patent publication US11713335B2, “Aminocoumarin compounds and methods of their use” (President and Fellows of Harvard College, priority 2018, dated 2023):
Converted amounts (≈) assume the structure as drawn. Read-outs that look alike come from different tables or passages of the source.

Key:
WT E. coli = assay: Minimal inhibitory concentration in wild-type E. coli; type: cell-based, Escherichia coli; details: wild-type E. coli, 37° C., 16 hours, read-out: MIC (μM) in WT E. coli
Experimental: General Procedure for Determination of Minimal Inhibitory Concentrations
Overnight cultures (5 mL) of bacterial strains were grown in LB media or TSA media (for S. aureus) at 37° C. and with shaking at 220 rpm until saturation. The overnight culture was diluted serially 1:100 (50 μL in 5 mL sterile media) and then 1:100 (250 μL in 25 mL sterile media). The 25 mL of diluted culture was then dispensed to a sterile 96 well plate (Corning #3370). 198 μL of culture were dispensed into row A and 100 μL of this culture were dispensed into rows B-H. Aminocoumarin compound (DMSO stock) were added to the first row and then the row was mixed by pipetting. 100 μL of culture from row A were transferred to row B and the serial dilution continued until the final 100 μL from row H were discarded. The plate was incubated without shaking in a 37° C. for 16 hours and then read by visible light spectrophotometer (Molecular Devices) at 600 nm. The minimal inhibitory concentration (MIC) was determined as the lowest concentration of compound concentration that inhibited the growth of bacteria.

S. aureus RN4220 = assay: Minimal inhibitory concentration, S. aureus RN4220; type: cell-based; details: 16 hour minimal inhibitory concentration at 37° C., read-out: MIC (μM) S. aureus RN4220
Summary of the method: (§1)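 Growth at 600 nm after 16 h at 37 °C without shaking defines the MIC, taken as the lowest compound concentration that prevents growth and expressed in µM. Cultures grown to saturation in LB, or TSA for S. aureus, were diluted 1:100 twice before twofold serial compound dilution.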

S. aureus MW2 = assay: Minimal inhibitory concentration, S. aureus MW2; type: cell-based; details: 16 hour minimal inhibitory concentration at 37° C., read-out: MIC (μM) S. aureus MW2 (MRSA)
Summary of the method: as §1

E. cloacae 13047 = assay: Minimal inhibitory concentration, E. cloacae 13047; type: cell-based; details: 16 hour minimal inhibitory concentration at 37° C., read-out: MIC (μM) E. cloacae 13047
Summary of the method: as §1

A. baumannii 19606 = assay: Minimal inhibitory concentration, A. baumannii 19606; type: cell-based; details: 16 hour minimal inhibitory concentration at 37° C., read-out: MIC (μM) A. baumannii 19606
Summary of the method: as §1

K. pneumoniae 700721 = assay: Minimal inhibitory concentration, K. pneumoniae 700721; type: cell-based; details: 16 hour minimal inhibitory concentration at 37° C., read-out: MIC (μM) K. pneumoniae 700721
Summary of the method: as §1

E. coli MC4100 = assay: Minimal inhibitory concentration, E. coli MC4100; type: cell-based; details: 16 hour minimal inhibitory concentration at 37° C., read-out: MIC (μM) E. coli MC4100 ara+
Summary of the method: as §1

E. coli 25922 = assay: Minimal inhibitory concentration, E. coli 25922; type: cell-based; details: 16 hour minimal inhibitory concentration at 37° C., read-out: MIC (μM) E. coli 25922
Summary of the method: as §1

[1] = Staphylococcus aureus, RN4220, 16 h
[2] = Staphylococcus aureus, MRSA, 16 h
[3] = Acinetobacter baumannii, 19606, 16 h

| Compound | MIC (WT E. coli; Escherichia coli) | MIC (S. aureus RN4220; [1]) | MIC (S. aureus MW2; [2]) | MIC (E. cloacae 13047; Enterobacter cloacae, 13047) | MIC (A. baumannii 19606; [3]) | MIC (K. pneumoniae 700721; Klebsiella pneumoniae, 700721) | MIC (E. coli MC4100; Escherichia coli, MC4100, 16 h) | MIC (E. coli 25922; Escherichia coli, 25922, 16 h) | MIC (WT E. coli) | MIC (S. aureus RN4220) | MIC (S. aureus MW2) | MIC (E. cloacae 13047) | MIC (A. baumannii 19606) | MIC (K. pneumoniae 700721) | MIC (E. coli MC4100) | MIC (E. coli 25922) |
| --- | --- | --- | --- | --- | --- | --- | --- | --- | --- | --- | --- | --- | --- | --- | --- | --- |
| COc1ccc(C(=O)Nc2c(O)c3ccc(O[C@@H]4OC(C)(C)[C@H](OC)[C@@H](OC(N)=O)[C@H]4O)c(C)c3oc2=O)cc1OC [Compound 9] | > 300 µM | 85 µM (≈ 50 µg/mL) | 43 µM (≈ 25.3 µg/mL) | > 100 µM | > 50 µM | > 100 µM | > 200 µM | > 200 µM | – | – | – | – | – | – | – | – |
| CO[C@@H]1[C@@H](OC(N)=O)[C@@H](O)[C@H](Oc2ccc3c(O)c(NC(=O)c4cccc(C5CCC5)c4)c(=O)oc3c2C)OC1(C)C [Compound 53] | – | – | – | – | – | – | – | – | >300 µM | 11 µM (≈ 6.41 µg/mL) | 11 µM (≈ 6.41 µg/mL) | >100 µM | >50 µM | >100 µM | >200 µM | >200 µM |
| CO[C@@H]1[C@@H](OC(N)=O)[C@@H](O)[C@H](Oc2ccc3c(O)c(NC(=O)c4ccc(O)c(CCC(N)=O)c4)c(=O)oc3c2C)OC1(C)C [Compound 91] | – | – | – | – | – | – | – | – | >300 µM | >100 µM | >100 µM | >100 µM | >50 µM | >100 µM | >200 µM | >200 µM |
| CO[C@@H]1[C@@H](OC(N)=O)[C@@H](O)[C@H](Oc2ccc3c(O)c(NC(=O)c4cccc(N5CCN(C)CC5)c4)c(=O)oc3c2C)OC1(C)C [Compound 52] | > 300 µM | > 100 µM | > 100 µM | > 100 µM | > 50 µM | > 100 µM | > 200 µM | 160 µM (≈ 100 µg/mL) | – | – | – | – | – | – | – | – |
| CO[C@@H]1[C@@H](OC(N)=O)[C@@H](O)[C@H](Oc2ccc3c(O)c(NC(=O)c4cccc(C5CCCCC5)c4)c(=O)oc3c2C)OC1(C)C [Compound 62] | – | – | – | – | – | – | – | – | 59 µM (≈ 36 µg/mL) | 5 µM (≈ 3.05 µg/mL) | 3 µM (≈ 1.83 µg/mL) | >100 µM | >50 µM | 82 µM (≈ 50.1 µg/mL) | 59 µM (≈ 36 µg/mL) | 82 µM (≈ 50.1 µg/mL) |
| CO[C@@H]1[C@@H](OC(N)=O)[C@@H](O)[C@H](Oc2ccc3c(O)c(NC(=O)c4cccc(-c5cccc(C(C)C)c5)c4)c(=O)oc3c2C)OC1(C)C [Compound 61] | – | – | – | – | – | – | – | – | 59 µM (≈ 38.2 µg/mL) | 0.39 µM (≈ 0.252 µg/mL) | 0.19 µM (≈ 0.123 µg/mL) | >100 µM | 10 µM (≈ 6.47 µg/mL) | >100 µM | 59 µM (≈ 38.2 µg/mL) | 77 µM (≈ 49.8 µg/mL) |
| CO[C@@H]1[C@@H](OC(N)=O)[C@@H](O)[C@H](Oc2ccc3c(O)c(NC(=O)c4cc(-c5ccccc5)c(OCc5ccccc5)cc4OCc4ccccc4)c(=O)oc3c2C)OC1(C)C [Compound 66] | – | – | – | – | – | – | – | – | >300 µM | >100 µM | >100 µM | >100 µM | >50 µM | >100 µM | >200 µM | >200 µM |
| CO[C@@H]1[C@@H](OC(N)=O)[C@@H](O)[C@H](Oc2ccc3c(O)c(NC(=O)c4cc(N)cc(-c5ccccc5)c4)c(=O)oc3c2C)OC1(C)C [Compound 89] | – | – | – | – | – | – | – | – | 59 µM (≈ 36.6 µg/mL) | 20 µM (≈ 12.4 µg/mL) | 10 µM (≈ 6.2 µg/mL) | >100 µM | >50 µM | >100 µM | 59 µM (≈ 36.6 µg/mL) | 81 µM (≈ 50.2 µg/mL) |
| CO[C@@H]1[C@@H](OC(N)=O)[C@@H](O)[C@H](Oc2ccc3c(O)c(NC(=O)c4cccc(-c5ccccc5)c4O)c(=O)oc3c2C)OC1(C)C [Compound 88] | – | – | – | – | – | – | – | – | 89 µM (≈ 55.2 µg/mL) | >100 µM | 81 µM (≈ 50.3 µg/mL) | >100 µM | >50 µM | >100 µM | 89 µM (≈ 55.2 µg/mL) | 161 µM (≈ 99.9 µg/mL) |
| CO[C@@H]1[C@@H](OC(N)=O)[C@@H](O)[C@H](Oc2ccc3c(O)c(NC(=O)Cc4ccccc4)c(=O)oc3c2C)OC1(C)C [Compound 42] | – | – | – | – | – | – | – | – | >300 µM | >100 µM | >100 µM | >100 µM | >50 µM | >100 µM | >200 µM | >200 µM |
| CO[C@@H]1[C@@H](OC(N)=O)[C@@H](O)[C@H](Oc2ccc3c(O)c(NC(=O)c4ccc[nH]4)c(=O)oc3c2C)OC1(C)C [Compound 15] | > 300 µM | > 100 µM | > 100 µM | > 100 µM | > 50 µM | > 100 µM | > 200 µM | > 200 µM | – | – | – | – | – | – | – | – |
| CO[C@@H]1[C@@H](OC(N)=O)[C@@H](O)[C@H](Oc2ccc3c(O)c(NC(=O)c4ccc(C#Cc5ccccc5)cc4)c(=O)oc3c2C)OC1(C)C [Compound 76] | – | – | – | – | – | – | – | – | 40 µM (≈ 25.1 µg/mL) | 5 µM (≈ 3.14 µg/mL) | 3 µM (≈ 1.89 µg/mL) | >100 µM | 40 µM (≈ 25.1 µg/mL) | >100 µM | 40 µM (≈ 25.1 µg/mL) | 80 µM (≈ 50.3 µg/mL) |
| CO[C@@H]1[C@@H](OC(N)=O)[C@@H](O)[C@H](Oc2ccc3c(O)c(NC(=O)c4ccc5c(ccn5C)c4)c(=O)oc3c2C)OC1(C)C.Cl [Compound 73] | – | – | – | – | – | – | – | – | >300 µM | >100 µM | 81 µM | >100 µM | >50 µM | >100 µM | >200 µM | >200 µM |
| CO[C@@H]1[C@@H](OC(N)=O)[C@@H](O)[C@H](Oc2ccc3c(O)c(NC(=O)c4ccc(O)c(-c5ccccc5)c4)c(=O)oc3c2C)OC1(C)C [Compound 83] | – | – | – | – | – | – | – | – | 26 µM (≈ 16.1 µg/mL) | 3 µM (≈ 1.86 µg/mL) | 2.5 µM (≈ 1.55 µg/mL) | >100 µM | 20 µM (≈ 12.4 µg/mL) | >100 µM | 26 µM (≈ 16.1 µg/mL) | 40 µM (≈ 24.8 µg/mL) |
| CO[C@@H]1[C@@H](OC(N)=O)[C@@H](O)[C@H](Oc2ccc3c(O)c(NC(=O)c4cccc(-c5ccc(C(C)C)cc5)c4)c(=O)oc3c2C)OC1(C)C [Compound 48] | 89 µM (≈ 57.6 µg/mL) | 0.77 µM (≈ 0.498 µg/mL) | 0.48 µM (≈ 0.31 µg/mL) | > 100 µM | 19 µM (≈ 12.3 µg/mL) | 77 µM (≈ 49.8 µg/mL) | 89 µM (≈ 57.6 µg/mL) | 77 µM (≈ 49.8 µg/mL) | – | – | – | – | – | – | – | – |
| CO[C@@H]1[C@@H](OC(N)=O)[C@@H](O)[C@H](Oc2ccc3c(O)c(NC(=O)c4cccc(Cc5ccccc5)c4)c(=O)oc3c2C)OC1(C)C [Compound 69] | – | – | – | – | – | – | – | – | 89 µM (≈ 55.1 µg/mL) | 5 µM (≈ 3.09 µg/mL) | 3 µM (≈ 1.86 µg/mL) | >100 µM | >50 µM | >100 µM | 89 µM (≈ 55.1 µg/mL) | 81 µM (≈ 50.1 µg/mL) |
| CO[C@@H]1[C@@H](OC(N)=O)[C@@H](O)[C@H](Oc2ccc3c(O)c(NC(=O)c4cc5ccccc5[nH]4)c(=O)oc3c2C)OC1(C)C [Compound 16] | – | – | – | – | – | – | – | – | >300 µM | >100 µM | >100 µM | >100 µM | >50 µM | >100 µM | >200 µM | >200 µM |
| CO[C@@H]1[C@@H](OC(N)=O)[C@@H](O)[C@H](Oc2ccc3c(O)c(NC(=O)c4ccccc4-c4ccccc4)c(=O)oc3c2C)OC1(C)C [Compound 40] | > 300 µM | 41 µM (≈ 24.8 µg/mL) | 41 µM (≈ 24.8 µg/mL) | > 100 µM | > 50 µM | > 100 µM | > 100 µM | > 200 µM | – | – | – | – | – | – | – | – |
| CO[C@@H]1[C@@H](OC(N)=O)[C@@H](O)[C@H](Oc2ccc3c(O)c(NC(=O)c4ccc(O)c(-c5cccc6ccccc56)c4)c(=O)oc3c2C)OC1(C)C [Compound 93] | – | – | – | – | – | – | – | – | 75 µM (≈ 50.3 µg/mL) | 37 µM (≈ 24.8 µg/mL) | 19 µM (≈ 12.7 µg/mL) | >100 µM | >50 µM | >100 µM | 75 µM (≈ 50.3 µg/mL) | >200 µM |
